{"source": "patent US9149044B2", "about": "“Pesticidal compositions” (Syngenta Participations AG, priority 2011, dated 2015)", "tested_on": "Heterodera glycines race 3", "assay": "Soybean pot test, cyst count as indicator of nematode control", "assay_type": "in vivo", "settings": "28 days after planting", "text": "A plug measuring 0.75 inch (approximately 1.9 cm) in diameter and 1 inch (approx. 2.5 cm) in depth was removed from each 3 inch diameter×8 inch deep (approx. 7.6×20 cm) plastic pot. Five thousand Heterodera glycines race 3 eggs were placed at the bottom of the plug hole. A soybean variety 3.6-B6 seed was placed on top of the inoculum. Six replicates were made for each treatment group. In addition to untreated control, the treatment groups were Pasteuria nishizawae, Bacillus firmus, and Pasteuria nishizawae+Bacillus firmus.\nBacillus firmus came applied as a seed treatment (available commercially, for example, from Bayer Crop Science as VOTIVO product, PONCHO/VOTIVO, having Bacillus firmus concentration at least 2×10^9 cfu/ml+clothianidin (0.13 mg/seed)). A point application containing Pasteuria nishizawae (approximately 5.0×10^9 spores) was applied directly to the seed in the pot. The plug was replaced in the hole to cover the seed. The soil was Vero Beach (Florida, USA) top soil, pH 5.9 (approximate composition sand 93%, silt 2%, clay 2%, organic matter 3%).\nAt 28 days after planting, plant height was measured and plants were removed from the pots. Soil was gently rinsed from the roots. The rinsed roots were placed in a 20 mesh over a 60 mesh sieve. The root system was blasted with water to remove cyst nematode females. The 20 mesh sieve was removed and the cysts were washed to the bottom of the 60 mesh sieve. The cysts were rinsed into a tube for counting under a stereoscope. Later the dry root weights were measured."}
{"substance": "Pasteuria nishizawae", "values": [{"measurement": "Average Cyst Count", "setting": "5000 eggs per pot, average of six replicates", "result": 366}, {"measurement": "Cyst Count", "setting": "5000 eggs per pot, cysts washed from roots, average of six replicates", "result": 366}, {"measurement": "% Control Observed", "setting": "from cyst count versus untreated control", "result": 2.40, "unit": "%"}]}
